Reference: the supplement of paper PMC10307832

How the values were obtained:
Test in all cases: relative viability (nuclei count vs DMSO), 5 days (fraction); higher = more cells survive
FH535 + Navitoclax = compound: CC1=C(C=CC(=C1)[N+](=O)[O-])NS(=O)(=O)C2=C(C=CC(=C2)Cl)Cl [FH535] + CC1(C)CCC(c2ccc(Cl)cc2)=C(CN2CCN(c3ccc(C(=O)NS(=O)(=O)c4ccc(N[C@H](CCN5CCOCC5)CSc5ccccc5)c(S(=O)(=O)C(F)(F)F)c4)cc3)CC2)C1 [Navitoclax] (partner 0.5 µM)
Method in brief: (§1)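 Cells from lung cancer lines were seeded into 1536-well plates and, one day later, dosed by pin tool. Treatments were either a single drug or a fixed dose of an anchor drug with five library-drug doses (not always all listed) in √10 steps. After 5 days, nuclei were stained in a one-step fixation (final 0.05% Triton X-100, 1% formaldehyde, 1 ug/ml Hoechst) and counted on 4× images, and relative viability is the treated-to-vehicle nuclei ratio, as the median of duplicate plates.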

FH535 + Trametinib = compound: CC1=C(C=CC(=C1)[N+](=O)[O-])NS(=O)(=O)C2=C(C=CC(=C2)Cl)Cl [FH535] + CC(=O)Nc1cccc(-n2c(=O)n(C3CC3)c(=O)c3c(Nc4ccc(I)cc4F)n(C)c(=O)c(C)c32)c1 [Trametinib] (partner 0.02 µM)
Method in brief: as §1

FH535 + Foretinib = compound: CC1=C(C=CC(=C1)[N+](=O)[O-])NS(=O)(=O)C2=C(C=CC(=C2)Cl)Cl [FH535] + COc1cc2c(Oc3ccc(NC(=O)C4(C(=O)Nc5ccc(F)cc5)CC4)cc3F)ccnc2cc1OCCCN1CCOCC1 [Foretinib] (partner 0.25 µM)
Method in brief: as §1

FH535 + Dasatinib = compound: CC1=C(C=CC(=C1)[N+](=O)[O-])NS(=O)(=O)C2=C(C=CC(=C2)Cl)Cl [FH535] + Cc1nc(Nc2ncc(C(=O)Nc3c(C)cccc3Cl)s2)cc(N2CCN(CCO)CC2)n1 [Dasatinib] (partner 0.075 µM)
Method in brief: as §1

FH535 + Lapatinib = compound: CC1=C(C=CC(=C1)[N+](=O)[O-])NS(=O)(=O)C2=C(C=CC(=C2)Cl)Cl [FH535] + CS(=O)(=O)CCNCc1ccc(-c2ccc3ncnc(Nc4ccc(OCc5cccc(F)c5)c(Cl)c4)c3c2)o1 [Lapatinib] (partner 2 µM)
Method in brief: as §1

Cell Line	relative viability (FH535 + Navitoclax; first compound 0.04 µM)	relative viability (FH535 + Navitoclax; first compound 0.1265 µM)	relative viability (FH535 + Navitoclax; first compound 0.4 µM)	relative viability (FH535 + Navitoclax; first compound 1.265 µM)	relative viability (FH535 + Trametinib; first compound 0.04 µM)	relative viability (FH535 + Trametinib; first compound 0.1265 µM)	relative viability (FH535 + Trametinib; first compound 0.4 µM)	relative viability (FH535 + Trametinib; first compound 1.265 µM)	relative viability (FH535 + Foretinib; first compound 0.04 µM)	relative viability (FH535 + Foretinib; first compound 0.1265 µM)	relative viability (FH535 + Foretinib; first compound 0.4 µM)	relative viability (FH535 + Foretinib; first compound 1.265 µM)	relative viability (FH535 + Dasatinib; first compound 0.04 µM)	relative viability (FH535 + Dasatinib; first compound 0.1265 µM)	relative viability (FH535 + Dasatinib; first compound 0.4 µM)	relative viability (FH535 + Dasatinib; first compound 1.265 µM)	relative viability (FH535 + Lapatinib; first compound 0.04 µM)	relative viability (FH535 + Lapatinib; first compound 0.1265 µM)	relative viability (FH535 + Lapatinib; first compound 0.4 µM)	relative viability (FH535 + Lapatinib; first compound 1.265 µM)
HCC-366	0.942	1.08	0.995	0.976	0.379	0.387	0.274	0.34	0.648	1.06	0.958	0.516	0.571	0.713	0.632	0.487	1	1.11	0.999	0.913
HCC-827	0.994	1.08	0.973	0.732	0.504	0.545	0.538	0.42	1.03	1.07	0.975	0.587	0.35	0.291	0.273	0.364	0.202	0.195	0.213	0.163
HOP-62	0.997	1.08	0.916	0.779	0.374	0.373	0.391	0.355	1.06	1.04	1.03	0.933	0.604	0.571	0.533	0.57	0.886	0.87	1	1.01
IA-LM	0.917	0.621	0.593	0.496					1.21	1.21	1.08	0.701					0.796	0.778	0.66	0.588
LC-2-ad	0.34	0.491	0.549	0.325	0.886	0.878	0.88	0.766	0.807	0.981	0.872	0.853	0.417	0.571	0.437	0.409	0.711	0.97	0.92	0.697
LCLC-97TM1		0.446	0.392	0.304	0.175	0.191	0.178	0.203	0.854	0.949	1.03	0.679	0.726	0.797	0.811	0.77		0.766	0.837	0.833
LCLC-103H					0.711	0.665	0.707	0.5	0.789	0.755	0.776	0.551	0.441	0.369	0.353	0.384				
LK-2	0.788	0.855	1	1.06	0.637	0.688	0.81	0.732	1.23	1.33	1.39	1.11	0.308	0.248	0.294	0.327	0.982	0.854	0.91	0.775
LOU-NH91	0.602	0.736	0.695	0.233	0.729	0.819	0.75	0.525	0.99	0.952	0.91	0.474	0.573	0.613	0.388	0.267	0.726	0.667	0.6	0.408
LU99A	0.716	0.667	0.844	0.844	0.475	0.572	0.576	0.338	0.706	0.865	0.736	0.761	0.435	0.439	0.468	0.507	0.739	1.05	0.969	0.866
NCI-H358					0.134	0.143	0.124	0.127	0.647	0.727	0.63	0.481	0.141	0.15	0.159	0.143	0.406	0.422	0.441	0.388
NCI-H441	0.669	0.773	0.502	0.365	0.454	0.334	0.428	0.394	0.959	0.97	1.08	0.801	0.436	0.518	0.527	0.472				
NCI-H650					0.887	0.953	1.04	0.795	0.927	1.05	1.01	0.788	0.4	0.462	0.429	0.309	0.718	0.886	0.703	0.68
NCI-H661					0.526	0.686	0.553	0.365	1.01	0.947	0.92	0.671	0.704	0.994	0.615	0.475	0.452	0.456	0.461	0.344
NCI-H1563									0.909	0.825	0.994	0.874	0.445	0.495	0.508	0.435	0.737	0.959	0.898	0.864
NCI-H1703	1.28	1.18	1.21	0.88					0.416		0.324	0.344					1.12	1.12	1.11	0.662
NCI-H1792	0.611	0.673	0.587	0.377	0.493	0.504	0.455	0.394					0.661	0.761	0.701	0.543	0.837	0.948	0.866	0.673
NCI-H2342					0.794	0.823	0.9	0.842	1.19	1.09	1.04	0.792	0.305	0.339	0.281	0.297				
SW 900					0.839	1.09	0.853	0.75	0.745	0.94	0.764	0.541	0.481	0.748	0.507	0.63				
